biological target: T1, hCRTH2 (Homo sapiens, UniProt Q9Y5Y4); assay: Radioligand binding assay ([3H]PGD2 competition, HEK-hCRTH2 membranes); settings: [3H]PGD2 competition, Table B
T1 construct: expressed in transfected cells; host or cells: HEK (human embryonic kidney) cells expressing hCRTH2; membrane preparation
T1 sequence (Q9Y5Y4 1-395): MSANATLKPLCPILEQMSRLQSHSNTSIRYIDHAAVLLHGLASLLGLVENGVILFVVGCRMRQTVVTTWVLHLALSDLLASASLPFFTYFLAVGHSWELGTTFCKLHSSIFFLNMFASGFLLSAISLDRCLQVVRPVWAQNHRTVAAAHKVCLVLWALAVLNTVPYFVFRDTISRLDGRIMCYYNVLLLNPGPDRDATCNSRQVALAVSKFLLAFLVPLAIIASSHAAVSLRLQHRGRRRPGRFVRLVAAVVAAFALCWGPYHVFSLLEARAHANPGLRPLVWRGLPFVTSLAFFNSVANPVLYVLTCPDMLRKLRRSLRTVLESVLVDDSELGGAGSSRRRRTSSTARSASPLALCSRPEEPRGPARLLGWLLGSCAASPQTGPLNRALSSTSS
Summary of the method: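 Using membranes of an HEK line stably carrying hCRTH2, ligands were tested against [3H]PGD2 (3.0 nM) in pH 7.4 Tris buffer containing 2 mM MnCl2 and 1 mM EDTA. After one hour at room temperature, filters were washed cold and counted.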

| Ki | Compound |
| --- | --- |
| 2.1 to 20 nM | O=C(O)CCCCc1nc2cc(C(=O)N3CC(OCc4ccccc4)C3)ccc2nc1-c1ccc(Cl)cc1 [compound 323, 5-(7-(3-(benzyloxy)azetidine-1-carbonyl)-3-(4-chlorophenyl)quinoxalin-2-yl)pentanoic acid] |
| 2.1 to 20 nM | O=C(O)CCCCc1nc2cc(C(=O)N3CC(n4cccn4)C3)ccc2nc1-c1ccc(Cl)cc1 [compound 324, 5-(7-(3-(1H-pyrazol-1-yl)azetidine-1-carbonyl)-3-(4-chlorophenyl)quinoxalin-2-yl)pentanoic acid] |
| 20.1 to 200 nM | O=C(O)CCCCc1nc2cc(C(=O)N3CC(n4ccnc4)C3)ccc2nc1-c1ccc(Cl)cc1 [compound 325, 5-(7-(3-(1H-imidazol-1-yl)azetidine-1-carbonyl)-3-(4-chlorophenyl)quinoxalin-2-yl)pentanoic acid] |
| 2.1 to 20 nM | O=C(O)CCCCc1nc2cc(C(=O)N3CC(c4nc(-c5ccncc5)no4)C3)ccc2nc1-c1ccc(Cl)cc1 [compound 326, 5-(3-(4-chlorophenyl)-7-(3-(3-(pyridin-4-yl)-1,2,4-oxadiazol-5-yl)azetidine-1-carbonyl)quinoxalin-2-yl)pentanoic acid] |
| 20.1 to 200 nM | O=C(O)CCCCc1nc2cc(C(=O)N3CC(n4cnnc4)C3)ccc2nc1-c1ccc(Cl)cc1 [compound 327, 5-(7-(3-(4H-1,2,4-triazol-4-yl)azetidine-l-carbonyl)-3-(4-chlorophenyl)quinoxalin-2-yl)pentanoic acid] |
| 2.1 to 20 nM | O=C(O)CCCCc1nc2cc(C(=O)N3CC(F)(c4ccccc4)C3)ccc2nc1-c1ccc(Cl)cc1 [compound 328, 5-(3-(4-chlorophenyl)-7-(3-fluoro-3-phenylazetidine-1-carbonyl)quinoxalin-2-yl)pentanoic acid] |
| 2.1 to 20 nM | O=C(O)CCCCc1nc2cc(C(=O)N3CC(Oc4ccccn4)C3)ccc2nc1-c1ccc(Cl)cc1 [compound 329, 5-(3-(4-chlorophenyl)-7-(3-(pyridin-2-yloxy)azetidine-1-carbonyl)quinoxalin-2-yl)pentanoic acid] |
| 2.1 to 20 nM | CN(C)c1cccc(-c2nc3ccc(C(=O)N[C@@H]4CCCc5ccccc54)cc3nc2CCCCC(=O)O)c1 [compound 330, (R)-5-(3-(3-(dimethylamino)phenyl)-7-((1,2,3,4-tetrahydronaphthalen-1-yl)carbamoyl)quinoxalin-2-yl)pentanoic acid] |
| 2.1 to 20 nM | O=C(O)CCCCc1nc2cc(C(=O)NC3CSc4ccccc43)ccc2nc1-c1ccc(Cl)cc1 (stereo not shown) [compound 331, 5-(3-(4-chlorophenyl)-7-((2,3-dihydrobenzo[b]thiophen-3-yl)carbamoyl)quinoxalin-2-yl)pentanoic acid] |
| 2.1 to 20 nM | N#Cc1ccc2c(c1)OCC[C@H]2NC(=O)c1ccc2nc(-c3ccc(Cl)cc3)c(CCCCC(=O)O)nc2c1 [compound 332, (R)-5-(3-(4-chlorophenyl)-7-((7-cyanochroman-4-yl)carbamoyl)quinoxalin-2-yl)pentanoic acid] |
| 2.1 to 20 nM | N#Cc1ccc2c(c1)OCC[C@@H]2NC(=O)c1ccc2nc(-c3ccc(Cl)cc3)c(CCCCC(=O)O)nc2c1 [compound 333, (S)-5-(3-(4-chlorophenyl)-7-((7-cyanochroman-4-yl)carbamoyl)quinoxalin-2-yl)pentanoic acid.] |
| 2.1 to 20 nM | O=C(O)CCCCc1nc2cc(C(=O)N[C@@H]3CCOc4cc(Cl)ccc43)ccc2nc1-c1ccc(Cl)cc1 [compound 334, (R)-5-(7-((7-chlorochroman-4-yl)carbamoyl)-3-(4-chlorophenyl)quinoxalin-2-yl)pentanoic acid] |
| 2.1 to 20 nM | O=C(O)CCCCc1nc2cc(C(=O)N[C@H]3CCOc4cc(Cl)ccc43)ccc2nc1-c1ccc(Cl)cc1 [compound 335, (S)-5-(7-((7-chlorochroman-4-yl)carbamoyl)-3-(4-chlorophenyl)quinoxalin-2-yl)pentanoic acid] |
| 20.1 to 200 nM | CN(C(=O)c1ccc2nc(-c3ccc(Cl)cc3)c(CCCCC(=O)O)nc2c1)C1NC(=O)c2ccccc21 (stereo not shown) [compound 336, 5-(3-(4-chlorophenyl)-7-(methyl(3-oxoisoindolin-1-yl)carbamoyl)quinoxalin-2-yl)pentanoic acid] |
| 20.1 to 200 nM | O=C(O)CCCCc1nc2cc(C(=O)N3CCC(N4CCCCC4)CC3)ccc2nc1-c1ccc(Cl)cc1 [compound 337, 5-(7-([1,4′-bipiperidine]-1′-carbonyl)-3 (4-chlorophenyl)quinoxalin-2-yl)pentanoic acid] |
| 2.1 to 20 nM | O=C(O)CCCCc1nc2cc(C(=O)N3CCC(n4ccc5ccccc54)CC3)ccc2nc1-c1ccc(Cl)cc1 [compound 338, 5-(7-(4-(1H-indol-1-yl)piperidine-l-carbonyl)-3-(4-chlorophenyl)quinoxalin-2-yl)pentanoic acid] |

| Ki | Compound |
| --- | --- |
| 20.1 to 200 nM | O=C(O)CCCCc1nc2cc(C(=O)N3CCC(N4CCCC4)CC3)ccc2nc1-c1ccc(Cl)cc1 [compound 339, 5-(3-(4-chlorophenyl)-7-(4-(pyrrolidin-1-yl)piperidine-1-carbonyl)quinoxalin-2-yl)pentanoic acid] |
| 2.1 to 20 nM | O=C(O)CCCCc1nc2cc(C(=O)N3CCC4(CCOC4)CC3)ccc2nc1-c1ccc(Cl)cc1 [compound 340, 5-(3-(4-chlorophenyl)-7-(2-oxa-8-azaspiro[4.5]decane-8-carbonyl)quinoxalin-2-yl)pentanoic acid] |
| 2.1 to 20 nM | O=C(O)CCCCc1nc2cc(C(=O)N3CCC(n4cncn4)CC3)ccc2nc1-c1ccc(Cl)cc1 [compound 341, 5-(7-(4-(1H-1,2,4-triazol-yl)piperidine-1-carbonyl)-3-(4-chlorophenyl)quinoxalin-2-yl)pentanoic acid] |
| 2.1 to 20 nM | O=C(O)CCCCc1nc2cc(C(=O)N3CCC(n4cccn4)CC3)ccc2nc1-c1ccc(Cl)cc1 [compound 342, 5-(7-(4-(1H-pyrazol-1-yl)piperidine-1-carbonyl)-3-(4-chlorophenyl)quinoxalin-2-yl)pentanoic acid] |
| 2.1 to 20 nM | O=C(O)CCCCc1nc2cc(C(=O)N3CCC4(CC3)COc3ccccc34)ccc2nc1-c1ccc(Cl)cc1 [compound 343, 5-(3--(4-chlorophenyl)-7-(2H-spiro[benzofuran-3,4′-piperidin]-1′-ylcarbonyl)quinoxalin-2-yl)pentanoic acid] |
| 2.1 to 20 nM | O=C(O)CCCCc1nc2cc(C(=O)N3CCC4(CC3)NC(=O)c3ccccc3O4)ccc2nc1-c1ccc(Cl)cc1 [compound 344, 5-(3-(4-chlorophenyl)-7-(4-oxo-3,4-dihydrospiro[benzo[e][1,3]oxazine-2,4′-piperidin]-1′-ylcarbonyl)quinoxalin-2-yl)pentanoic acid] |
| 2.1 to 20 nM | O=C(O)CCCCc1nc2cc(C(=O)N3CC4CCCC(C3)C4c3ccccc3)ccc2nc1-c1ccc(Cl)cc1 [compound 345, 5-(3-(4-chlorophenyl)-7-((1R,5S,9r)-9-phenyl-3-azabicyclo[3.3.1]nonane-3-carbonyl)quinoxa1in-2-yl)pentanoic acid] |
| 2.1 to 20 nM | Cn1cnc(C2CCN(C(=O)c3ccc4nc(-c5ccc(Cl)cc5)c(CCCCC(=O)O)nc4c3)CC2)c1 [compound 346, 5-(3-(4-chlorophenyl)-7-(4-(1-methyl-1H-imidazol-4-yl)piperidine-1-carbonyl)quinoxalin-2-yl)pentanoic acid] |
| 20.1 to 200 nM | O=C(O)CCCCc1nc2cc(C(=O)N3CCc4oc(C5CC5)nc4C3)ccc2nc1-c1ccc(Cl)cc1 [compound 347, 5-(3-(4-chlorophenyl)-7-(2-cyclopropyl-4,5,6,7-tetrahydrooxazolo[4,5-c]pyridine-5-carbonyl)quinoxalin-2-yl)pentanoic acid] |
| 2.1 to 20 nM | O=C(O)CCCCc1nc2cc(C(=O)N3CCC(n4ncc5ccccc54)CC3)ccc2nc1-c1ccc(Cl)cc1 [compound 348, 5-(7-(4-(1H-indazol-1-yl)piperidine-1-carbonyl)-3-(4-chlorophenyl)quinoxalin-2-yl)pentanoic acid] |
| 20.1 to 200 nM | CN1CC2(CCN(C(=O)c3ccc4nc(-c5ccc(Cl)cc5)c(CCCCC(=O)O)nc4c3)CC2)CC1=O [compound 349, 5-(3-(4-chlorophenyl)-7-(2-methyl-3-oxo-2,8-diazaspiro[4.5]decane-8-carbonyl)quinoxalin-2-yl)pentanoic acid] |
| 20.1 to 200 nM | O=C(O)CCCCc1nc2cc(C(=O)N3CCN(c4ccccc4)C(=O)C3)ccc2nc1-c1ccccc1 [compound 350, 5-(7-(3-oxo-4-phenylpiperazine-1-carbonyl)-3-phenylquinoxalin-2-yl)pentanoic acid] |
| 2.1 to 20 nM | O=C(O)CCCCc1nc2cc(C(=O)N3CCN(c4ccc(F)cc4)CC3)ccc2nc1-c1ccccc1 [compound 351, 5-(7-(4-(4-fluorophenyl)piperazine-1-carbonyl)-3-phenylquinoxalin-2-yl)pentanoic acid] |
| 2.1 to 20 nM | O=C(O)CCCCc1nc2cc(C(=O)NC3CC(=O)Nc4ccccc43)ccc2nc1-c1ccc(F)cc1 (stereo not shown) [compound 352, 5-(3-(4-fluorophenyl)-7-((2-oxo-1,2,3,4-tetrahydroquinolin-4-yl)carbamoyl)quinoxalin-2-yl)pentanoic acid] |
| 2.1 to 20 nM | O=C(O)CCCCc1nc2cc(C(=O)N3CCC4(CC3)CNC(=O)c3ccccc34)ccc2nc1-c1ccc(F)cc1 [compound 353, 5-(3-(4-fluorophenyl)-7-(1-oxo-2,3-dihydro-1H-spiro[isoquinoline-4,4′-piperidin]-1′-ylcarbonyl)quinoxalin-2-yl)pentanoic acid] |
